Values joined by “and” are separate entries in the source; they are usually repeats but may differ in a detail not shown here. Identical values can stand only once.
Assays:
[1] = molecular target: GABA-A receptor; anion channel; assay: Displacement of [3H]flunitrazepam from GABAA central benzodiazepine receptor in Wistar rat brain membrane without cerebellum measured after 60 mins by scintillation counting analysis; format: cell membranes
[2] = molecular target: GABA-A receptor; anion channel (Rattus norvegicus) (UniProt O09028+P15431+P18506+P18508+P19969+P20236+P23574+P23576+P28471+P28473+P30191+P62813+P63079+P63138+Q91ZM7+Q9ES14); assay: Displacement of [3H]flunitrazepam from GABAA central benzodiazepine receptor in Wistar rat brain membrane without cerebellum measured after 60 mins by scintillation counting analysis relative to control; format: cell membranes

Compound: Cc1cc(Cl)cc2c1-n1cnnc1CN=C2c1ccccc1Cl
- IC50 [1]: 23 nM

Compound: Cc1cc(Cl)cc2c1-n1c(C)nnc1CN=C2c1ccccc1Cl
- inhibition [2]: < 50%
- IC50 [1]: 10.9 nM and 34 nM

Compound: Clc1ccc2c(c1)C(c1ccccc1Cl)=NCc1nncn1-2
- IC50 [1]: 1.94 nM

Compound: Cc1cc(Cl)cc2c1-n1c(C)nnc1CN=C2c1ccccc1
- inhibition [2]: < 50%
- IC50 [1]: 210 nM and 430 nM
